Tests used:
Type in all cases: cell-based, human
NK cells (CD3^-CD56^+) = assay: NK cell numbers, viability and apoptosis in PBMCs (flow cytometry, DiOC6(3)/PI staining); details: idelalisib 10 µM, 48 hours; PBMCs from patients with CLL (n = 6 - 8); Figure 4G
Experimental: (§1) To evaluate absolute cell numbers, an equal volume of PKH26 reference microbeads (Sigma-Aldrich) was added to each sample after staining for immune subset identification. Microbeads (5x10^3) were acquired by flow cytometry and absolute numbers of each immune population within the sample were calculated. Normalized percentage values were calculated considering the control (DMSO)-treated cells as 100%.
(§2) Cell viability and apoptosis were evaluated by double-staining with the mitochondrial inner transmembrane potential (ΔΨm)-sensitive dye DiOC6(3) (3,3'-dihexyloxacarbocyanine iodide; Sigma-Aldrich) and the exclusion dye propidium iodide (PI; Immunostep), allowing identification of apoptotic [DiOC6(3)^low PI^-] and dead [PI^+] cells as per Proc. Natl. Acad. Sci. U.S.A. (2014) 111(8):3020-3025 and Methods Mol. Biol. (2016) 1419:1-16. Briefly, PBMCs were resuspended in culture medium containing 20 nM DiOC6(3) and incubated for 30 minutes at 37 °C. Then, PI (1 µg/mL) was added and cells were further incubated for 10 minutes at room temperature (RT). Cells were analyzed by flow cytometry considering DiOC6(3)^+PI^- cells as viable. In some experiments, apoptosis was evaluated by staining with Annexin V/PI. Thus, PBMCs were incubated in Annexin V binding buffer containing 5 µg/mL Annexin V-FITC (Biolegend) for 15 minutes at RT and PI (1 µg/mL) was subsequently added. Data were normalized to the untreated control as a percentage. Only samples with at least 60% of viable cells (DiOC6(3)^+; Annexin V^-) in the control (DMSO) condition were employed in this study.
(§3) The effect of EC-7072 toward healthy immune subsets, T lymphocytes and natural killer (NK) cells, which are chronically exposed to leukemia cells in the peripheral blood of patients with CLL was assessed by: • (i) incubating PBMCs isolated from patients with CLL (n = 10) following treatment with increasing concentrations of EC-7072 (0 - 400 nM) for 24 hours. Numbers of T cells (CD3^+CD56^-) (Figure 2A) and NK cells (CD3^-CD56^+) (Figure 2B) were evaluated by flow cytometry and normalized to their respective control (DMSO) condition for each individual patient to obtain percentage of relative number of T cells and NK cells, respectively; • (ii) incubating PBMCs isolated from patients with CLL (n = 6 - 10) following treatment with increasing concentrations of EC-7072 (0 - 400 nM) for 24 hours. Viability of immune subsets (leukemia cells, T cells and NK cells) was determined by cytofluorometric assessment of DiOC6(3)/PI staining and normalized to their respective control (DMSO) condition for each individual patient to obtain percentage of viable [DiOC6(3)^+] cells (Figures 2C and 2D); • (iii) incubating PBMCs isolated from patients with CLL (n = 11) following treatment with DMSO or EC-7072 (200 nM) for 24 hours. Numbers of CD4^+ cells (Figure 2E) and CD8^+ T cells (Figure 2F) were evaluated by flow cytometry and normalized to their respective control (DMSO) condition for each individual experiment; • (iv) incubating PBMCs isolated from healthy donors (n = 15) following treatment with EC-7072 (200 nM) for 24 hours. […]

T cells (CD3^+CD56^-) = assay: T cell numbers, viability and apoptosis in PBMCs (flow cytometry, DiOC6(3)/PI staining); details: idelalisib 10 µM, 48 hours; PBMCs from patients with CLL (n = 6 - 8); Figure 4G
Experimental: as §1, §2, §3

HK-2 cells = assay: Cell death of HK-2 cells by PI staining; details: 200 nM, 24 hours; n = 3
Experimental: (§4) Effectiveness of EC-7072 against different B-cell malignancies was assessed by; • (i) incubating primary fibroblasts from healthy donors (n = 4) and HK-2 cells from healthy human adult kidney (n = 3) following treatment with MTA (200 nM) or EC-7072 (200 nM) for 24 hours. Cell death was evaluated by PI staining to obtain the percentages corresponding to the [PI^+] subset (Figure 5A) and the mean percentage of [PI^+] cells (Figure 5B); • (ii) treating MEC-1, GRANTA-519, Z-138, JVM-2, CA-46, Ramos, Raji and U266 cell lines (n = 3) following treatment with EC-7072 (500 nM) followed by incubation for 24 hours. Cell viability was assessed by DiOC6(3)/PI staining and normalized to control (DMSO) condition to obtain mean percentage of viable [DiOC6(3)^+] cells (Figure 5C).

[1] = tested on: primary fibroblasts from healthy donors; assay: Cell death of primary fibroblasts by PI staining; details: 200 nM, 24 hours; n = 4
Experimental: as §4

active caspase-3 = assay: Caspase-3 activity assay in leukemia cells (flow cytometry); details: Z-VAD-fmk 0-100 µM pretreatment, then EC-7072 200 nM for 24 hours; n = 6
Experimental: Intracellular levels of activated caspase-3 were measured by using CaspGLOW™ Fluorescein Active Caspase-3 Staining Kit (Invitrogen). In brief, EC-7072 (200 nM) or DMSO-treated PBMCs from patients with CLL were incubated with FITC-DEVD-fmk for 30 minutes at 37 °c and fluorescence was next analyzed by flow cytometry in leukemia cells. For some experiments, cells were pretreated for 2 hours with the indicated doses of the broad-spectrum caspase inhibitor Z-VAD-fmk.
The induction of caspase-dependent apoptosis on primary CLL cells by EC-7072 was assessed by: • (i) incubating PBMCs isolated from patients with CLL (n = 6) following treatment with increasing concentrations of EC-7072 (0 - 400 nM) for 24 hours. Apoptosis of leukemia cells was evaluated by cytofluorometric assessment of Annexin V/PI staining to obtain percentages of apoptotic [Annexin V^+ PI^-] and dead [PI^+] cells (Figure 3A); • (ii) incubating PBMCs and T cells isolated from patients with CLL (n = 3) following treatment with EC-7072 (200 nM) for 24 hours. T cell apoptosis was evaluated by cytofluorometric assessment of Annexin V/PI staining to obtain percentages of viable [Annexin V-], apoptotic [Annexin V^+ PI^-] and dead [PI^+] cells (Figure 3B); • (iii) incubating PBMCs isolated from patients with CLL (n = 6) following treatment with EC-7072 (0 - 400 nM) for 24 hours. […]

primary CLL cells = assay: Leukemia cell viability and apoptosis by DiOC6(3)/PI staining and flow cytometry; details: Z-VAD-fmk 0-100 µM pretreatment, then EC-7072 200 nM for 24 hours; n = 6
Experimental: as §2
The in vitro cytotoxic activity of EC-7072 against primary CLL cells was assessed by: • (i) incubating PBMCs isolated from patients with CLL (n = 13) following treatment with increasing concentrations of EC-7072 (0 - 400 nM) for 24 hours. Numbers of leukemia cells were evaluated by flow cytometry and normalized to their respective control (DMSO) condition for each individual patient to obtain percentage of leukemia cells (Figure 1A); • (ii) incubating PBMCs from patients with CLL (n = 10) with or without EC-7072 (100-400 nM) for 24 hours. Viability of leukemia cells was determined by cytofluorometric assessment of DiOC6(3)/PI staining and normalized to their respective control condition to obtain percentage viability (Figure 1B); • (iii) incubating PBMCs from patients with CLL (n = 10) with increasing concentrations of EC-7072 (0 - 400 nM) for 24 hours. Apoptosis of leukemia cells was determined by DiOC6(3)/PI staining and flow cytometry to obtain the mean percentages of apoptotic [DiOC6(3)^low PI^-] and dead [PI^+] cells (Figure 1C); • (iv) incubating PBMCs from patients with CLL (n = 10) with or without EC-7072 (200 nM) for 12 to 72 hours. Viability of leukemia cells was determined by DiOC6(3)/PI staining and normalized to their respective control condition to obtain percentage viability (Figure 1D); • (v) incubating PBMCs from patients with CLL (n = 24) with MTA (200 nM) or EC-7072 (200 nM) for 24 hours. Leukemia cell death was determined by DiOC6(3)/PI staining and flow cytometry to obtain the mean percentages of apoptotic [DiOC6(3)^low PI^-] and dead [PI^+] cells (Figure 1E); • (vi) incubating PBMCs from patients with CLL (n = 63) or healthy donors (n = 20) with or without EC-7072 (200 nM) for 24 hours. Viability of leukemia cells and healthy B cells was evaluated by DiOC6(3)/PI staining and normalized to their respective control condition to obtain percentage viability (Figure 1F); • (vii) incubating PBMCs from patients with CLL (n = 62) following treatment with EC-7072 (200 nM) for 24 hours and obtaining a cytogenetic profile for each patient. Viability of leukemia cells was evaluated by DiOC6(3)/PI staining and normalized to their respective control (DMSO) condition for each individual patient to obtain the percentage of viable [DiOC6(3)^+] cells (Figure 1G); • (viii) incubating PBMCs from patients with CLL (n = 59) following treatment with EC-7072 (200 nM) for 24 hours and determining mutational status of IgHV for each patient. Viability of leukemia cells was evaluated by DiOC6(3)/PI staining and normalized to their respective control (DMSO) condition for each individual patient to obtain the percentage of viable [DiOC6(3)^+] cells (Figure 1H). […]

`CC[C@H](Nc1ncnc2[nH]cnc12)c1nc2cccc(F)c2c(=O)n1-c1ccccc1` [Idelalisib, reference compound] was tested, and the “viability of NK cells” value (NK cells (CD3^-CD56^+)) was “negligible effects” and the “viability of T cells” value (T cells (CD3^+CD56^-)) was “negligible effects”.
In the case of `COC(C(=O)C(O)C(C)O)C1Cc2cc3cc(OC4CC(OC5CC(O)C(O)C(C)O5)C(O)C(C)O4)c(C)c(O)c3c(O)c2C(=O)C1OC1CC(OC2CC(OC3CC(C)(O)C(O)C(C)O3)C(O)C(C)O2)C(O)C(C)O1` (stereo not drawn) [MTA, Mithramycin A, reference compound], the “viability of HK-2 cells (PI^+ cells)” value (HK-2 cells) is reported as “high toxicity” and the “viability of primary human fibroblasts (PI^+ cells)” value [1] is reported as “high toxicity”.
With Z-VAD-fmk [reference compound] the “active caspase-3 levels on leukemia cells after Z-VAD-fmk pretreatment” value (active caspase-3) was “decrease of active caspase-3 levels” and the “death of primary CLL cells induced by EC-7072 after Z-VAD-fmk pretreatment” value (primary CLL cells) was “completely abrogated the death”.

Source: EP3797781A1, “USE OF EC-7072 AND SYNERGIC COMPOSITIONS THEREOF IN TREATMENT OF CHRONIC LYMPHOCYTIC LEUKEMIA” (priority 2019, dated 2021)
